Source: PubChem BioAssay (NCI)
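A five-concentration, 48-hour dose response in 96-well plates underlies each endpoint, interpolated linearly between surrounding concentrations. TGI: concentration producing complete growth inhibition.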

Key:
Experiment in all cases: growth of human tumour cells (NCI), 48 h
SK-MEL-28 melanoma = system: SK-MEL-28 melanoma
SNB-19 CNS = system: SNB-19 CNS
SK-MEL-2 melanoma = system: SK-MEL-2 melanoma
IGROV1 ovarian = system: IGROV1 ovarian
DLD-1 colon = system: DLD-1 colon
OVCAR-4 ovarian = system: OVCAR-4 ovarian
NCI-H460 lung = system: NCI-H460 lung
786-0 renal = system: 786-0 renal
NCI-H23 lung = system: NCI-H23 lung
OVCAR-3 ovarian = system: OVCAR-3 ovarian
A498 renal = system: A498 renal
NCI-H522 lung = system: NCI-H522 lung
HL-60(TB) leukemia = system: HL-60(TB) leukemia
UACC-257 melanoma = system: UACC-257 melanoma
K-562 leukemia = system: K-562 leukemia
SK-OV-3 ovarian = system: SK-OV-3 ovarian
SW-620 colon = system: SW-620 colon
DMS 273 small cell lung = system: DMS 273 small cell lung
SF-268 CNS = system: SF-268 CNS
COLO 205 colon = system: COLO 205 colon
HT29 colon = system: HT29 colon
DMS 114 small cell lung = system: DMS 114 small cell lung
OVCAR-5 ovarian = system: OVCAR-5 ovarian
UO-31 renal = system: UO-31 renal
ACHN renal = system: ACHN renal
OVCAR-8 ovarian = system: OVCAR-8 ovarian
SN12C renal = system: SN12C renal
HCC-2998 colon = system: HCC-2998 colon
HOP-18 NSCLC = system: HOP-18 NSCLC
RXF-631 renal = system: RXF-631 renal
LOX IMVI melanoma = system: LOX IMVI melanoma
RXF 393 renal = system: RXF 393 renal
MALME-3M melanoma = system: MALME-3M melanoma
SF-539 CNS = system: SF-539 CNS
TK-10 renal = system: TK-10 renal
SR leukemia = system: SR leukemia
HCT-15 colon = system: HCT-15 colon
HCT-116 colon = system: HCT-116 colon
M14 melanoma = system: M14 melanoma
U251 CNS = system: U251 CNS
UACC-62 melanoma = system: UACC-62 melanoma
SF-295 CNS = system: SF-295 CNS
LXFL 529 NSCLC = system: LXFL 529 NSCLC
M19-MEL melanoma = system: M19-MEL melanoma
SNB-78 CNS = system: SNB-78 CNS
SK-MEL-5 melanoma = system: SK-MEL-5 melanoma
A549 NSCLC = system: A549 NSCLC
KM12 colon = system: KM12 colon
HOP-62 NSCLC = system: HOP-62 NSCLC
EKVX NSCLC = system: EKVX NSCLC
HOP-92 NSCLC = system: HOP-92 NSCLC
RPMI-8226 leukemia = system: RPMI-8226 leukemia
KM20L2 colon = system: KM20L2 colon
SNB-75 CNS = system: SNB-75 CNS
CAKI-1 renal = system: CAKI-1 renal
NCI-H226 lung = system: NCI-H226 lung
MOLT-4 leukemia = system: MOLT-4 leukemia
CCRF-CEM leukemia = system: CCRF-CEM leukemia

With `CSc1nc(NC2OC(COC(C)=O)C(OC(C)=O)C(OC(C)=O)C2OC(C)=O)c(N=CC=Nc2c(NC3OC(COC(C)=O)C(OC(C)=O)C(OC(C)=O)C3OC(C)=O)nc(SC)[nH]c2=O)c(=O)[nH]1` (stereo unspecified) the TGI (SK-MEL-28 melanoma) was greater than 100 µM, the TGI (SNB-19 CNS) was greater than 100 µM and the TGI (SK-MEL-2 melanoma) was greater than 100 µM. For the same compound, the TGI (IGROV1 ovarian) was greater than 100 µM, the TGI (DLD-1 colon) was greater than 100 µM and the TGI (OVCAR-4 ovarian) was greater than 100 µM. For the same compound, the TGI (NCI-H460 lung) was greater than 100 µM, the TGI (786-0 renal) was greater than 100 µM and the TGI (NCI-H23 lung) was greater than 100 µM. The TGI (OVCAR-3 ovarian) was greater than 100 µM, the TGI (A498 renal) was greater than 100 µM and the TGI (NCI-H522 lung) was greater than 100 µM. It also gave a TGI (HL-60(TB) leukemia) greater than 100 µM, a TGI (UACC-257 melanoma) greater than 100 µM and a TGI (K-562 leukemia) greater than 100 µM. The TGI (SK-OV-3 ovarian) was greater than 100 µM, the TGI (SW-620 colon) was greater than 100 µM and the TGI (DMS 273 small cell lung) was greater than 100 µM. The TGI (SF-268 CNS) was greater than 100 µM, the TGI (COLO 205 colon) was greater than 100 µM and the TGI (HT29 colon) was greater than 100 µM. It also gave a TGI (DMS 114 small cell lung) greater than 100 µM, a TGI (OVCAR-5 ovarian) greater than 100 µM and a TGI (UO-31 renal) greater than 100 µM. It also gave a TGI (ACHN renal) greater than 100 µM, a TGI (OVCAR-8 ovarian) greater than 100 µM and a TGI (SN12C renal) greater than 100 µM. For the same compound, the TGI (HCC-2998 colon) was greater than 100 µM, the TGI (HOP-18 NSCLC) was greater than 100 µM and the TGI (RXF-631 renal) was greater than 100 µM. For the same compound, the TGI (LOX IMVI melanoma) was greater than 100 µM, the TGI (RXF 393 renal) was greater than 100 µM and the TGI (MALME-3M melanoma) was greater than 100 µM. For the same compound, the TGI (SF-539 CNS) was greater than 100 µM, the TGI (TK-10 renal) was greater than 100 µM and the TGI (SR leukemia) was greater than 100 µM. It also gave a TGI (HCT-15 colon) greater than 100 µM, a TGI (HCT-116 colon) greater than 100 µM and a TGI (M14 melanoma) greater than 100 µM. For the same compound, the TGI (U251 CNS) was greater than 100 µM, the TGI (UACC-62 melanoma) was greater than 100 µM and the TGI (SF-295 CNS) was greater than 100 µM. It also gave a TGI (LXFL 529 NSCLC) greater than 100 µM, a TGI (M19-MEL melanoma) greater than 100 µM and a TGI (SNB-78 CNS) greater than 100 µM. For the same compound, the TGI (SK-MEL-5 melanoma) was greater than 100 µM, the TGI (A549 NSCLC) was greater than 100 µM and the TGI (KM12 colon) was greater than 100 µM. For the same compound, the TGI (HOP-62 NSCLC) was greater than 100 µM, the TGI (EKVX NSCLC) was greater than 100 µM and the TGI (HOP-92 NSCLC) was greater than 100 µM. It also gave a TGI (RPMI-8226 leukemia) greater than 100 µM, a TGI (KM20L2 colon) greater than 100 µM and a TGI (SNB-75 CNS) greater than 100 µM.
With `CCOC(OC1=C(C#N)CCC1)C(C)[Se]c1ccccc1` (stereo unspecified) the TGI (SK-MEL-28 melanoma) was 96.9 µM, the TGI (SNB-19 CNS) was greater than 100 µM and the TGI (SK-MEL-2 melanoma) was greater than 100 µM. For the same compound, the TGI (IGROV1 ovarian) was 68.8 µM, the TGI (CAKI-1 renal) was greater than 100 µM and the TGI (DLD-1 colon) was 87.6 µM. It also gave a TGI (OVCAR-4 ovarian) of 30.5 µM, a TGI (NCI-H460 lung) greater than 100 µM and a TGI (786-0 renal) of 27.8 µM. For the same compound, the TGI (NCI-H226 lung) was 51.7 µM, the TGI (NCI-H23 lung) was 26.6 µM and the TGI (OVCAR-3 ovarian) was 42.5 µM. It also gave a TGI (A498 renal) greater than 100 µM, a TGI (NCI-H522 lung) of 26.7 µM and a TGI (HL-60(TB) leukemia) of 73.8 µM. The TGI (UACC-257 melanoma) was greater than 100 µM, the TGI (K-562 leukemia) was greater than 100 µM and the TGI (SK-OV-3 ovarian) was greater than 100 µM. For the same compound, the TGI (DMS 273 small cell lung) was 29.7 µM, the TGI (SF-268 CNS) was 46.6 µM and the TGI (COLO 205 colon) was greater than 100 µM. The TGI (HT29 colon) was greater than 100 µM, the TGI (DMS 114 small cell lung) was 14.2 µM and the TGI (OVCAR-5 ovarian) was greater than 100 µM. The TGI (UO-31 renal) was 67.4 µM, the TGI (ACHN renal) was 96.2 µM and the TGI (OVCAR-8 ovarian) was 35.9 µM. It also gave a TGI (SN12C renal) of 35.8 µM, a TGI (HCC-2998 colon) greater than 100 µM and a TGI (HOP-18 NSCLC) of 55.3 µM. It also gave a TGI (RXF-631 renal) of 26.3 µM, a TGI (LOX IMVI melanoma) of 22.9 µM and a TGI (RXF 393 renal) of 34.7 µM. It also gave a TGI (MALME-3M melanoma) of 51.9 µM, a TGI (SF-539 CNS) of 41 µM and a TGI (TK-10 renal) greater than 100 µM. The TGI (SR leukemia) was 34.8 µM, the TGI (HCT-15 colon) was 35.2 µM and the TGI (HCT-116 colon) was 42.4 µM. For the same compound, the TGI (MOLT-4 leukemia) was 43.7 µM, the TGI (M14 melanoma) was 33.4 µM and the TGI (U251 CNS) was 21.5 µM. The TGI (UACC-62 melanoma) was 43.9 µM, the TGI (SF-295 CNS) was 71.6 µM and the TGI (LXFL 529 NSCLC) was 46 µM. For the same compound, the TGI (M19-MEL melanoma) was 30.9 µM, the TGI (SNB-78 CNS) was greater than 100 µM and the TGI (SK-MEL-5 melanoma) was 34 µM. The TGI (A549 NSCLC) was greater than 100 µM, the TGI (KM12 colon) was greater than 100 µM and the TGI (HOP-62 NSCLC) was greater than 100 µM. For the same compound, the TGI (CCRF-CEM leukemia) was greater than 100 µM, the TGI (EKVX NSCLC) was 82.6 µM and the TGI (HOP-92 NSCLC) was 49.3 µM. For the same compound, the TGI (RPMI-8226 leukemia) was 53.1 µM, the TGI (KM20L2 colon) was greater than 100 µM and the TGI (SNB-75 CNS) was 77.9 µM.
